Source: patent US10357477B2, “Anticancer compounds” (REGENTS OF THE UNIVERSITY OF MINNESOTA, priority 2016, dated 2019)

How the values were obtained:
MIA PaCa-2 cells = test: Cell viability assay (MTT) in MIA PaCa-2 cells; assay type: cell-based; details: Homo sapiens, antiproliferative activity, 72 h
Method: MIA PaCa-2 cells (CRL-1420, ATCC) were maintained in DMEM media supplemented with 10% FBS, 2.5% HS, 1% GlutaMAX, 1% sodium pyruvate, 100 U/mL penicillin, and 100 μg/mL streptomycin. Cell culture media and additives were purchased from Gibco. Cells were plated in 96-well plates at |1−2.5|×10^4 cells per well in the DMEM growth media. One microliter of a 2-fold serially diluted compound solution in DMSO (Sigma) starting at 20 mM (100 μM final concentration) was added to each well. The final volume in each well was 200 μL, yielding a final DMSO concentration of 0.5%. Control wells contained 0.5% DMSO (100% viability) or 25% DMSO (background) and all reactions were done in triplicate. The plate was incubated for 72 h at 37° C. in a 5% CO2/95% air humidified atmosphere.
Measurement of cell viability was carried out using a modified method of Mosmann based on 3-(4,5-dimethylthiazol-2-yl)-2,5-diphenyltetrazolium bromide (MTT, Sigma). MTT solution was prepared fresh at 1 mg/mL in serum-free and phenol red-free RPMI 1640 media. After 200 μL of MTT solution was added to each well, the plate was incubated as described above for 3 h. The MTT solution was removed, and the formazan crystals were solubilized with 200 μL of isopropanol. The plate was read on a SpectraMax i3 spectrophotometer (Molecular Devices) at 570 nm for formazan and 650 nm for background subtraction. EC50 values were calculated by fitting the data in GraphPad Prism software. EC50 values were determined in triplicate.

Panc-1 cells = test: Cell viability assay (MTT) in Panc-1 cells; assay type: cell-based; details: Homo sapiens, antiproliferative activity, 72 h
Method: Panc-1 cells are maintained in RPMI 1640 (Invitrogen 11875) media supplemented with 10% FBS, 1% Penicillin/Streptomycin and 1% Glutamax-1. Cells were plated in 96-well plates at 25×10^4 cells/ml. After 24 hours, compounds were added at 9, 3× dilutions in triplicate from 100 uM final concentration in the appropriate growth media. Plates were incubated for 72 hours at 37° C. in a 5% CO2/95% air humidified atmosphere after which time the media was removed and MTT was added in RPMI phenol red free media. The MTT was removed after 3 hours and formazan crystals were solubilized with 200 μL of isopropanol. Plates were read on a Molecular Devices SpectraMax i3 spectrophotometer at 570 nm for formazan and 690 nm for background subtraction. EC50 values were calculated by fitting the data in GraphPad Prism software.

Row | SMILES | EC50 (MIA PaCa-2 cells) [µM] | EC50 (Panc-1 cells) [µM]
1 | Cc1nn(Cc2ccccc2)c(C)c1NC(=O)c1ccc(COc2ccccc2)cc1 [Compound A1, N-(1-Benzyl-3,5-dimethyl-1H-pyrazol-4-yl)-4-(phenoxymethyl)benzamide] | 10 | 9
2 | Cc1nn(Cc2ccc(C(N)=O)cc2)c(C)c1NC(=O)c1ccc(COc2ccccc2)cc1 [Compound A2a, N-(1-(4-Carbamoylbenzyl)-3,5-dimethyl-1H-pyrazol-4-yl)-4-(phenoxymethyl)benzamide] | > 100 | > 100
3 | Cc1nn(Cc2cccc(C(N)=O)c2)c(C)c1NC(=O)c1ccc(COc2ccccc2)cc1 [Compound A2b, N-(1-(3-Carbamoylbenzyl)-3,5-dimethyl-1H-pyrazol-4-yl)-4-(phenoxymethyl)benzamide] | 9.2 | 11
4 | Cc1nn(Cc2ccccc2C(N)=O)c(C)c1NC(=O)c1ccc(COc2ccccc2)cc1 [Compound A2c, N-(1-(2-Carbamoylbenzyl)-3,5-dimethyl-1H-pyrazol-4-yl)-4-(phenoxymethyl)benzamide] | 42 | > 100
5 | CNC(=O)c1ccc(Cn2nc(C)c(NC(=O)c3ccc(COc4ccccc4)cc3)c2C)cc1 [Compound A3a, N-(3,5-Dimethyl-1-(4-(methylcarbamoyl)benzyl)-1H-pyrazol-4-yl)-4-(phenoxymethyl)benzamide] | 12 | 36
6 | CNC(=O)c1cccc(Cn2nc(C)c(NC(=O)c3ccc(COc4ccccc4)cc3)c2C)c1 [Compound A3b, 3-((3,5-Dimethyl-4-(4-(phenoxymethyl)benzamido)-1H-pyrazol-1-yl)methyl)-N-methylbenzamide] | 6.2 | 5.2
7 | CNC(=O)c1ccccc1Cn1nc(C)c(NC(=O)c2ccc(COc3ccccc3)cc2)c1C [Compound A3c, 2-((3,5-Dimethyl-4-(4-(phenoxymethyl)benzamido)-1H-pyrazol-1-yl)methyl)-N-methylbenzamide] | 7.7 | 14
8 | Cc1nn(Cc2cccc(C(=O)N(C)C)c2)c(C)c1NC(=O)c1ccc(COc2ccccc2)cc1 [Compound A4a, 3-((3,5-Dimethyl-4-(4-(phenoxymethyl)benzamido)-1H-pyrazol-1-yl)methyl)-N,N-dimethylbenzamide] | 6.4 | 1.2
9 | CCNC(=O)c1cccc(Cn2nc(C)c(NC(=O)c3ccc(COc4ccccc4)cc3)c2C)c1 [Compound A4b, 3-((3,5-Dimethyl-4-(4-(phenoxymethyl)benzamido)-1H-pyrazol-1-yl)methyl)-N-ethylbenzamide] | 11 | 1.6
10 | Cc1nn(Cc2cccc(C(=O)NC(C)C)c2)c(C)c1NC(=O)c1ccc(COc2ccccc2)cc1 [Compound A4c, 3-((3,5-Dimethyl-4-(4-(phenoxymethyl)benzamido)-1H-pyrazol-1-yl)methyl)-N-isopropylbenzamide] | 8.9 | 1.4
11 | Cc1nn(Cc2ccc([N+](=O)[O-])cc2)c(C)c1NC(=O)c1ccc(COc2ccccc2)cc1 [Compound A5a, N-(3,5-Dimethyl-1-(4-nitrobenzyl)-1H-pyrazol-4-yl)-4-(phenoxymethyl)benzamide] | 7.8 | 23
12 | Cc1nn(Cc2cccc([N+](=O)[O-])c2)c(C)c1NC(=O)c1ccc(COc2ccccc2)cc1 [Compound A5b, N-(3,5-Dimethyl-1-(3-nitrobenzyl)-1H-pyrazol-4-yl)-4-(phenoxymethyl)benzamide] | 11 | 20
13 | Cc1nn(Cc2ccccc2[N+](=O)[O-])c(C)c1NC(=O)c1ccc(COc2ccccc2)cc1 [Compound A5c, N-(3,5-Dimethyl-1-(2-nitrobenzyl)-1H-pyrazol-4-yl)-4-(phenoxymethyl)benzamide] | 6 | 5.3
14 | Cc1nn(Cc2ccc(N)cc2)c(C)c1NC(=O)c1ccc(COc2ccccc2)cc1 [Compound A6a, N-(1-(4-Aminobenzyl)-3,5-dimethyl-1H-pyrazol-4-yl)-4-(phenoxymethyl)benzamide] | > 100 | 44
15 | Cc1nn(Cc2cccc(N)c2)c(C)c1NC(=O)c1ccc(COc2ccccc2)cc1 [Compound A6b, N-(1-(3-Aminobenzyl)-3,5-dimethyl-1H-pyrazol-4-yl)-4-(phenoxymethyl)benzamide] | 35 | 9.7
16 | Cc1nn(Cc2ccccc2N)c(C)c1NC(=O)c1ccc(COc2ccccc2)cc1 [Compound A6c, N-(1-(2-Aminobenzyl)-3,5-dimethyl-1H-pyrazol-4-yl)-4-(phenoxymethyl)benzamide] | 11 | 22
17 | CC(=O)Nc1ccc(Cn2nc(C)c(NC(=O)c3ccc(COc4ccccc4)cc3)c2C)cc1 [Compound A7a, N-(1-(4-Acetamidobenzyl)-3,5-dimethyl-1H-pyrazol-4-yl)-4-(phenoxymethyl)benzamide] | 50 | > 100
18 | CC(=O)Nc1cccc(Cn2nc(C)c(NC(=O)c3ccc(COc4ccccc4)cc3)c2C)c1 [Compound A7b, N-(1-(3-Acetamidobenzyl)-3,5-dimethyl-1H-pyrazol-4-yl)-4-(phenoxymethyl)benzamide] | 2.7 | 12
19 | CC(=O)Nc1ccccc1Cn1nc(C)c(NC(=O)c2ccc(COc3ccccc3)cc2)c1C [Compound A7c, N-(1-(2-Acetamidobenzyl)-3,5-dimethyl-1H-pyrazol-4-yl)-4-(phenoxymethyl)benzamide] | 2.6 | 31
20 | CNC(=O)c1cccc(Cn2nc(C)c(NC(=O)c3ccc(CCc4ccccc4)cc3)c2C)c1 [Compound C3, 3-((3,5-Dimethyl-4-(4-phenethylbenzamido)-1H-pyrazol-1-yl)methyl)-N-methylbenzamide] | 5.4 | 0.76
21 | CNC(=O)c1cccc(Cn2nc(C)c(NC(=O)c3ccc(C(=O)Nc4ccccc4)cc3)c2C)c1 [Compound C4, N^1-(3,5-Dimethyl-1-(3-(methylcarbamoyl)benzyl)-1H-pyrazol-4-yl)-N^4-phenylterephthalamide] | 69 | 51
22 | CNC(=O)c1cccc(Cn2nc(C)c(NC(=O)c3ccc(OCc4ccccc4)cc3)c2C)c1 [Compound C5, 3-((4-(4-(Benzyloxy)benzamido)-3,5-dimethyl-1H-pyrazol-1-yl)methyl)-N-methylbenzamide] | 8.2 | 6
23 | CNC(=O)c1cccc(Cn2nc(C)c(NC(=O)c3ccc(COc4cccc5ccccc45)cc3)c2C)c1 [Compound D2, 3-((3,5-Dimethyl-4-(4-((naphthalen-1-yloxy)methyl)benzamido)-1H-pyrazol-1-yl)methyl)-N-methylbenzamide] | 6 | 1.3
24 | CNC(=O)c1cccc(Cn2nc(C)c(NC(=O)c3ccc(COc4ccccc4C)cc3)c2C)c1 [Compound D3a, 3-((3,5-Dimethyl-4-(4-((o-tolyloxy)methyl)benzamido)-1H-pyrazol-1-yl)methyl)-N-methylbenzamide] | 2.1 | 0.61
25 | CNC(=O)c1cccc(Cn2nc(C)c(NC(=O)c3ccc(COc4cccnc4)cc3)c2C)c1 [Compound G2, 3-((3,5-Dimethyl-4-(4-((pyridin-3-yloxy)methyl)benzamido)-1H-pyrazol-1-yl)methyl)-N-methylbenzamide] | 24 | –
26 | CNC(=O)c1cccc(Cn2nc(C)c(NC(=O)c3ccc(COc4ccncc4)cc3)c2C)c1 [Compound G3, 3-((3,5-Dimethyl-4-(4-((pyridin-4-yloxy)methyl)benzamido)-1H-pyrazol-1-yl)methyl)-N-methylbenzamide] | 99 | –
